Test results taken from patent US4711898A, “4-quinolone derivatives having anti-inflammatory, anti-allergic, antitussive, expectorant and antithrombotic activity” (Nippon Shinyaku Co., Ltd., priority 1982, dated 1987).

How the values were obtained:
[1] = test system: passive cutaneous anaphylaxis (DNP-As homocytotropic antiserum); experiment: passive cutaneous anaphylatic assay (PCA) in rats; assay type: in vivo, Wistar strain rats; conditions: 10 mg/kg orally, one hour before antigen; for inhibition in vivo at 10 mg/kg: Rattus norvegicus, po, 1 h, read-out: PCA Inhibition Ratio %
Procedure: (§1) The compounds of the present invention have been evaluated for their anti-allergenic action by passive cutaneous anaphylatic assay (PCA) in rats and by measuring the anti-SRS-A action using ileus of guinea pigs.
(i) Antiserum abundant in homocytotropic antibody is prepared by the same method as Tada and Okumura did (cf. Journal of Immunology, vol. 106, page 1002, 1971). Thus, 1 mg (calculated as an amount of protein) of DNP-As (2,4-dinitrophenylcoupled ascaris extract) prepared by methods of Strejan and Campbell (Journal of Immunology, vol. 98, p. 893, 1967) and of Eisen (Journal of Amer. Chem. Soc., vol. 75, p 4593, 1953) and 1×10^10pertussis vaccine are administered to each paw of Wistar strain rats (180 to 200 grams body weights) by dividing the dose by four. Five days later, 0.5 mg of DNP-As is administered into muscle of back. Eight days later from the initial immunization, blood is taken from discending aorta under anesthetizing with ether, the resulting serum is stored at -80° and is melted before use.
(ii) Effect of tested compounds is investigated as follows:
Anti-serum obtained by th method (i) is diluted with physiological saline solution double by double successively and 0.05 ml of each diluted solution is administered into the back of Wistar strain rats (140 to 160 grams body weight) intradermally. After 72 hours, a solution of 2 mg (calculated as protein) of DNP-As and 2.5 mg of Evans Blue dissolved in 1 ml of physiological saline solution is administered intraveously at a dose of 5 ml/kg. After 30 minutes from the antigen solution administration, the animals are killed and the diameters of blue spots which appeared at the place where antiserum was administered were measured. The PCA test is conducted by the same method as already described using a diluted solutions of antiserum which always show 10 mm or more of spot diameters and the effect of the test compounds is judged. Thus antiserum diluted solutions are administered into two places in the back. Test compounds are administered orally at the dose of 10 mg/kg one hour before administration of the antigen solution. From the skin of reacted parts of killed animals, leaked or emitted dyestuff is extracted and the amount of the dyestuff is measured. The inhibition ratio is calculated by the following expression: [formula] in which A' is an amount of dyestuff in the group treated with the test compounds and A is that in the control group.

[2] = test system: SRS-A (slow reacting substance of anaphylaxis) contraction of ileum; experiment: Anti-SRS-A action using ileus of guinea pigs; assay type: cell-based, Hartley strain male guinea pigs; conditions: 5 min, guinea pig ileum, SRS-A 20 units, compound five minutes before; for inhibition at 1 µM: Cavia porcellus, 1/1000 mM, read-out: 1/1000 mM SRS-A Inhibition Ratio %
Procedure: as §1
Anti-SRS-A action (An anti-acton against slow reacting substance of anaphylaxis).
Hartley strain male guinea pigs (300 to 350 grams body weight) are killed and 1.0 to 1.5 cm of ileum is immeidiately excised from ileocecal parts and is suspended in 10 ml of Tyrode solution (95% 02 -5% CO2 saturation) containing 10^-7 g/ml of atropine and 10^-6 g/ml of pyrilamine. SRS-A (20 units) (the amount of SRS-A showing the same contradiction as 5 ng of histamine is defined as 1 unit) prepared by using sensitized guinea pig lung is given to cause contraction there. Then antagonistic action of test compounds treated five minutes ago against the contraction is measured and recorded via isotonic transducer. [formula] in which A' is a height of contraction of SRS-A+test compound and A is that of SRS-A.

## CCCCCc1ccc(-c2cc(=O)c3cc(C(=O)OC)ccc3[nH]2)cc1 [Example 50]
[1]
  inhibition in vivo at 10 mg/kg: 19.4%
[2]
  inhibition at 1 µM: 36%

## COC(=O)c1ccc2[nH]c(-c3ccc(C)cc3C)cc(=O)c2c1 [Example 54]
[1]
  inhibition in vivo at 10 mg/kg: 18.9%
[2]
  inhibition at 1 µM: 22.4%

## CCc1ccccc1-c1cc(=O)c2cc(C(=O)O)ccc2[nH]1 [Example 45]
[1]
  inhibition in vivo at 10 mg/kg: 24.2%
[2]
  inhibition at 1 µM: 25.4%

## CCCn1c(-c2ccccc2)cc(=O)c2cc(C(=O)O)ccc21 [Example 16]
[1]
  inhibition in vivo at 10 mg/kg: 23.4%
[2]
  inhibition at 1 µM: 19.7%

## CC(C)COCCOC(=O)c1cccc2c(=O)cc(-c3ccccc3Cl)[nH]c12 [Example 127]
[1]
  inhibition in vivo at 10 mg/kg: 13.3%
[2]
  inhibition at 1 µM: 25.4%

## COC(=O)c1ccc2[nH]c(-c3ccccc3Br)cc(=O)c2c1 [Example 24]
[1]
  inhibition in vivo at 10 mg/kg: 23.4%
[2]
  inhibition at 1 µM: 55.8%

## COC(=O)c1ccc2[nH]c(-c3ccc(Cl)cc3)cc(=O)c2c1 [Example 32]
[1]
  inhibition in vivo at 10 mg/kg: 24.4%
[2]
  inhibition at 1 µM: 20.6%

## Cc1ccc(-c2cc(=O)c3cccc(C(=O)OCCO)c3[nH]2)cc1 [Example 135]
[1]
  inhibition in vivo at 10 mg/kg: 35%
[2]
  inhibition at 1 µM: 27.3%

## CC(C)c1ccc(-c2cc(=O)c3cc(C(=O)O)ccc3[nH]2)cc1 [Example 49]
[1]
  inhibition in vivo at 10 mg/kg: 25.2%
[2]
  inhibition at 1 µM: 18.8%

## O=C(O)c1ccc2c(c1)C(=O)CC(c1ccccc1)=N2 [Example 2, 2-Phenyl-4-quinolone-6-carboxylic acid]
[1]
  inhibition in vivo at 10 mg/kg: 22.5%
[2]
  inhibition at 1 µM: 23.9%

## CCCn1c(-c2ccccc2)cc(=O)c2cc(C(=O)OC)ccc21 [Example 15]
[1]
  inhibition in vivo at 10 mg/kg: 19.7%
[2]
  inhibition at 1 µM: 65.3%

## Cc1ccc(-c2cc(=O)c3cccc(C(=O)O)c3[nH]2)cc1 [Example 93]
[1]
  inhibition in vivo at 10 mg/kg: 23.5%
[2]
  inhibition at 1 µM: 26.7%

## O=C(O)c1ccc2[nH]c(-c3ccco3)cc(=O)c2c1 [Example 77]
[1]
  inhibition in vivo at 10 mg/kg: 17.4%
[2]
  inhibition at 1 µM: 21%

## O=C(O)c1ccc(-c2cc(=O)c3cc(C(=O)O)ccc3[nH]2)cc1 [Example 69]
[1]
  inhibition in vivo at 10 mg/kg: 25.8%
[2]
  inhibition at 1 µM: 27.9%

## CC(=O)COC(=O)c1cccc2c(=O)cc(-c3ccccc3Cl)[nH]c12 [Example 122]
[1]
  inhibition in vivo at 10 mg/kg: 14.7%
[2]
  inhibition at 1 µM: 20.4%

## CCOC(=O)c1cccc2c(=O)cc(-c3ccccc3F)[nH]c12 [2-Fluoro, Ethyl]
[1]
  inhibition in vivo at 10 mg/kg: 28.5%
[2]
  inhibition at 1 µM: 33.3%

## O=C(OCC(O)CO)c1cccc2c(=O)cc(-c3ccccc3Cl)[nH]c12 (centres unmarked) [Example 126]
[1]
  inhibition in vivo at 10 mg/kg: 15.3%
[2]
  inhibition at 1 µM: 19.2%

## O=C(O)c1cccc2c(=O)cc(-c3ccccc3)[nH]c12 [Example 81]
[1]; listed as H, H
  PCA Inhibition Ratio %: 35.3%
[2]
  inhibition at 1 µM: 26.4%

## O=C(O)c1cccc2c(=O)cc(-c3ccc(Cl)cc3Cl)[nH]c12 [Example 90]
[1]
  inhibition in vivo at 10 mg/kg: 23.4%
[2]
  inhibition at 1 µM: 53.6%

## CCCCCCn1c(-c2ccccc2)cc(=O)c2cc(C(=O)OC)ccc21 [Example 19]
[1]
  inhibition in vivo at 10 mg/kg: 27%
[2]
  inhibition at 1 µM: 27.5%

## CCOC(=O)c1cccc2c(=O)cc(-c3ccc(Cl)cc3)[nH]c12 [Example 103]
[1]
  inhibition in vivo at 10 mg/kg: 14.7%
[2]
  inhibition at 1 µM: 12.4%

## CCOC(=O)c1cccc2c(=O)cc(-c3ccc(OC)cc3)[nH]c12 [4-Methoxy, Ethyl]
[1]
  inhibition in vivo at 10 mg/kg: 3.2%
[2]
  inhibition at 1 µM: 20.3%

## C=CCc1c(-c2ccccc2)[nH]c2ccc(C(=O)O)cc2c1=O [Example 12]
[1]
  inhibition in vivo at 10 mg/kg: 17.5%
[2]
  inhibition at 1 µM: 22.3%

## Cc1ccccc1-c1cc(=O)c2cc(C(=O)O)ccc2[nH]1 [Example 43]
[1]; listed as 2-Methyl, Na salt
  PCA Inhibition Ratio %: 24.8%
[2]; listed as 2-Methyl, Na salt, 1 µM
  1/1000 mM SRS-A Inhibition Ratio %: 17.3%

## O=C(O)c1ccc2[nH]c(-c3ccccc3)cc(=O)c2c1 [Example 3, Sodium 2-phenyl-4-quinolone-6-carboxylate]
[1]
  inhibition in vivo at 10 mg/kg: 27.9%
[2]
  inhibition at 1 µM: 85%

## COc1ccccc1C1=Nc2ccc(C(=O)O)cc2C(=O)C1 [Example 57, 2-(2-methoxyphenyl)-4-quinolone-6-carboxylic acid]
[1]
  inhibition in vivo at 10 mg/kg: 20.4%
[2]
  inhibition at 1 µM: 27.7%

## O=C(OCCOc1ccccc1)c1cccc2c(=O)cc(-c3ccccc3Cl)[nH]c12 [Example 119]
[1]
  inhibition in vivo at 10 mg/kg: 47%
[2]
  inhibition at 1 µM: 73.4%

## O=C(OCCO)c1cccc2c(=O)cc(-c3cccc(Cl)c3)[nH]c12 [Example 132]
[1]
  inhibition in vivo at 10 mg/kg: 18.6%
[2]
  inhibition at 1 µM: 55.5%

## O=C(O)c1ccc2[nH]c(-c3cccc(Cl)c3)cc(=O)c2c1 [Example 30]
[1]
  inhibition in vivo at 10 mg/kg: 43%
[2]
  inhibition at 1 µM: 24.5%

## COC(=O)c1ccc2[nH]c(-c3ccc(C(C)C)cc3)cc(=O)c2c1 [Example 48]
[1]
  inhibition in vivo at 10 mg/kg: 26.4%
[2]
  inhibition at 1 µM: 24.2%

## CCOCCOCCOC(=O)c1cccc2c(=O)cc(-c3ccccc3Cl)[nH]c12 [Example 129]
[1]
  inhibition in vivo at 10 mg/kg: 5.4%
[2]
  inhibition at 1 µM: 10.2%

## O=C(O)c1ccc2[nH]c(-c3ccc(Cl)cc3)cc(=O)c2c1 [Example 33]
[1]
  inhibition in vivo at 10 mg/kg: 22.3%
[2]
  inhibition at 1 µM: 22.5%

## CC(C)Oc1ccccc1-c1cc(=O)c2cc(C(=O)O)ccc2[nH]1 [Example 61]
[1]
  inhibition in vivo at 10 mg/kg: 20.1%
[2]
  inhibition at 1 µM: 31.8%

## COC(=O)c1ccc2c(c1)c(=O)cc(-c1ccccc1)n2C [Example 7, Methyl 1-methyl-2-phenyl-4-quinolone-6-carboxylate]
[1]
  inhibition in vivo at 10 mg/kg: 21.3%
[2]
  inhibition at 1 µM: 100%

## CCc1ccccc1-c1cc(=O)c2cc(C(=O)OC)ccc2[nH]1 [Example 44]
[1]
  inhibition in vivo at 10 mg/kg: 18%
[2]
  inhibition at 1 µM: 41.3%

## COC(=O)c1cccc2c(=O)cc(-c3ccc(Cl)cc3Cl)[nH]c12 [Example 88]
[1]
  inhibition in vivo at 10 mg/kg: 17.5%
[2]
  inhibition at 1 µM: 45.5%

## COC(=O)c1cccc2c1N=C(c1ccccc1Cl)CC2=O [Example 101, Methyl 2-(2-chlorophenyl)-4-quinolone-8-carboxylate]
[1]
  inhibition in vivo at 10 mg/kg: 17.4%
[2]
  inhibition at 1 µM: 14.7%

## C=CCc1c(-c2ccccc2)[nH]c2ccc(C(=O)OC)cc2c1=O [Example 11]
[1]
  inhibition in vivo at 10 mg/kg: 20.1%
[2]
  inhibition at 1 µM: 37.5%

## O=C(O)c1ccc2[nH]c(-c3ccncc3)cc(=O)c2c1 [Example 71]
[1]
  inhibition in vivo at 10 mg/kg: 25.6%
[2]
  inhibition at 1 µM: 25%

## COc1ccc(-c2cc(=O)c3cccc(C(=O)OCCO)c3[nH]2)c(OC)c1 [Example 139]
[1]
  inhibition in vivo at 10 mg/kg: 18.4%
[2]
  inhibition at 1 µM: 63.3%

## CCOC(=O)COC(=O)c1cccc2c(=O)cc(-c3ccccc3Cl)[nH]c12 [Example 123]
[1]
  inhibition in vivo at 10 mg/kg: 16%
[2]
  inhibition at 1 µM: 17.4%

## COC(=O)c1ccc2[nH]c(-c3cccs3)cc(=O)c2c1 [Example 78]
[1]
  inhibition in vivo at 10 mg/kg: 26.7%
[2]
  inhibition at 1 µM: 23.3%

## COc1ccc(-c2cc(=O)c3cccc(C(=O)OCCO)c3[nH]2)cc1 [Example 138]
[1]
  inhibition in vivo at 10 mg/kg: 12.7%
[2]
  inhibition at 1 µM: 25.4%

## O=C(OCCCO)c1cccc2c(=O)cc(-c3ccccc3Cl)[nH]c12 [Example 115]
[1]
  inhibition in vivo at 10 mg/kg: 12.4%
[2]
  inhibition at 1 µM: 27.4%

## O=C(O)c1ccc2[nH]c(-c3ccccc3F)cc(=O)c2c1 [Example 27]
[1]
  inhibition in vivo at 10 mg/kg: 25.6%
[2]
  inhibition at 1 µM: 23.4%

## CCCCCCCCc1ccc(-c2cc(=O)c3cccc(C(=O)O)c3[nH]2)cc1 [Example 97]
[1]
  inhibition in vivo at 10 mg/kg: 22%
[2]
  inhibition at 1 µM: 33.7%

## COc1ccc(-c2cc(=O)c3cc(C(=O)O)ccc3[nH]2)cc1OC [Example 67]
[1]
  inhibition in vivo at 10 mg/kg: 17.4%
[2]
  inhibition at 1 µM: 25%

## COc1ccc(-c2cc(=O)c3cc(C(=O)O)ccc3[nH]2)c(OC)c1 [Example 65]
[1]
  inhibition in vivo at 10 mg/kg: 26.9%
[2]
  inhibition at 1 µM: 27.3%

## COc1ccc(-c2cc(=O)c3cccc(C(=O)OCCO)c3[nH]2)cc1OC [Example 140]
[1]
  inhibition in vivo at 10 mg/kg: 19.4%
[2]
  inhibition at 1 µM: 18.3%
